Data published in PubChem BioAssay AID1963980 (Molecular Pharmacology Branch, DTP, NCI, 2024).

Test system: 475296-252-R-J1-PDC spheroid viability
Experiment: Anticancer human tumor 475296-252-R-J1-PDC patient-derived rectal carcinoma cell line growth inhibition [PI3K]
Conditions: spheroids with HUVEC and MSC; for viability, T/C: stronger effect = lower value
Text: Combinatorial screen of targeted agents with the PI3K inhibitors inavolisib, alpelisib, duvelisib, and copanlisib in multi-cell type tumor spheroids
A high-throughput screen of multi-cell type tumor spheroids was designed to identify active combinations of targeted small molecules and PI3K pathway inhibitors. Complex spheroids include a stromal component modeled by human endothelial cells (HUVEC) and fibroblasts modeled by human mesenchymal stem cells (MSCs). The concentration ranges selected for each drug and investigational agent were based upon clinically achievable concentrations if the clinical Cmax of the agent was known.
Compounds. The drugs and investigational agents: inavolisib (NSC800729), alpelisib (NSC765974), duvelisib (NSC772469), copanlisib (NSC816437), ipatasertib (NSC767898), afuresertib (NSC778305), talazoparib (NSC767125), sapanisertib (NSC764658), selumetinib (NSC741078), tovorafenib (DAY101, NSC766906), vemurafenib (NSC761431), ravoxertinib (NSC781343), sotorasib (NSC818433), MRTX1133 (NSC 836407), abemaciclib (NSC 768073), palbociclib (NSC758247), venetoclax (NSC 766270), SY5609 (NSC837396), enzalutamide (NSC755605), and darolutamide (NSC825331), were obtained from the National Cancer Institute (NCI) Developmental Therapeutics Program Chemical Repository. The FDA-approved anticancer drug set is available from the NCI Developmental Therapeutics Program. […] The stock solutions were prepared in dimethyl sulfoxide (DMSO, Sigma-Aldrich, St. Louis, MO, cat. D2650) at 800-fold the tested concentration and stored at -70 degrees C prior to their use. All drugs and investigational agents were tested over a range starting from a high concentration at or near the clinical Cmax and decreasing in half-log increments. If the clinical Cmax for an agent had not been determined, the highest concentration tested was 10 microM.
Cell Culture. All cells were maintained in an incubator at 37 degrees C and 5% CO2 with 95% humidity. The PDC lines were cultured according to standard operating procedures established by the NCI PDMR (https://pdmr.cancer.gov/sops/default.htm). All PDCs were thawed and cultured in Matrigel-coated flasks prepared with a working solution of 1X Ham's F-12 nutrient mix, without supplementation (Invitrogen, Waltham, MA, cat. 11765054), 100 U/mL penicillin-streptomycin (Invitrogen, cat. 15140122), and 2.5% Matrigel (Corning Inc., Corning, NY, cat. 354248) for the first three passages. The 354836-022-R-J1-PDC, 475296-252-R-J1-PDC, and 997726-040-R-J2-PDC lines were cultured in 6A media, which includes advanced DMEM/F-12 (Thermo Fisher Scientific, cat. 12634028), 10 mM HEPES (Thermo Fisher Scientific, cat. 15630080), 1X GlutaMAX supplement (Thermo Fisher Scientific, cat. 35050061), 0.1 mg/mL primocin (InvivoGen, San Diego, CA, cat. ant-pm-2), 10% defined fetal bovine serum, heat inactivated (HyClone Laboratories Inc., Logan, UT, cat. SH30070.03HI), 50% L-WRN conditioned media (ATCC, cat. CRL-3276), 1.25 mM N-Acetyl-L-cysteine (Sigma-Aldrich, cat. A9165), 10 mM nicotinamide (Sigma-Aldrich, cat. N0636), 1X B-27 supplement (Thermo Fisher Scientific, cat. 17504044), 1X N-2 supplement (Thermo Fisher Scientific, cat. 17502048), and 10 microM Y-27632 dihydrochloride (Tocris Bioscience, Bristol, United Kingdom, cat. 1254). The 624824-186-R-J2-PDC line was cultured in 6C/Colon 1B media, which includes all 6A media components plus 50 ng/mL human EGF recombinant protein (Thermo Fisher Scientific, cat. PHG0311). […]
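Note: spheroids exposed to agents for seven days before readout.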

Question: `CC(=O)c1c(C)c2cnc(Nc3ccc(N4CCNCC4)cn3)nc2n(C2CCCC2)c1=O` was tested. Which viability, T/C (compound 0.000316 µM) did it give?
Answer: Its viability, T/C is 106% [middle of 4 runs].

Question: What about the viability, T/C (compound 0.001 µM) of the same compound?
Answer: Its viability, T/C is 98.3% [middle of 4 runs].

Question: What about the viability, T/C (compound 0.00316 µM) of the same compound?
Answer: Its viability, T/C is 98% [middle of 4 runs].

Question: What about the viability, T/C (compound 0.01 µM) of the same compound?
Answer: Its viability, T/C is 98.9% [middle of 4 runs].

Question: What about the viability, T/C (compound 0.0316 µM) of the same compound?
Answer: The viability, T/C was 108% [middle of 4 runs].

Question: What about the viability, T/C (compound 0.1 µM) of the same compound?
Answer: The viability, T/C was 108% [middle of 4 runs].

Question: What about the IC50 (curve of compound) of the same compound?
Answer: The IC50 was > 0.1 µM.

Question: `C=CC(=O)N1CCN(c2nc(=O)n(-c3c(C)ccnc3C(C)C)c3nc(-c4c(O)cccc4F)c(F)cc23)C(C)C1` (centres undefined) + COc1c(OCCCN2CCOCC2)ccc2c3n(c(=NC(=O)c4cnc(N)nc4)nc12)CCN3 was tested. Which IC50 (curve of first compound, second compound 0.00316 µM) did it give?
Answer: Its IC50 is > 10 µM.

Question: What about the IC50 (curve of first compound, second compound 0.01 µM) of the same compound?
Answer: The IC50 was > 10 µM.

Question: And the IC50 (curve of first compound, second compound 0.0316 µM)?
Answer: Its IC50 is > 10 µM.

Question: What about the IC50 (curve of first compound, second compound 0.1 µM) of the same compound?
Answer: The IC50 was > 10 µM.

Question: What about the IC50 (curve of first compound, second compound 0.316 µM) of the same compound?
Answer: Its IC50 is > 10 µM.

Question: And the IC50 (curve of first compound, second compound 1 µM)?
Answer: Its IC50 is > 10 µM.

Question: And the viability, T/C (second compound 0.00316 µM, first compound 0.0316 µM)?
Answer: Its viability, T/C is 102%.

Question: And the viability, T/C (second compound 0.00316 µM, first compound 0.1 µM)?
Answer: The viability, T/C was 101%.

Question: And the viability, T/C (second compound 0.00316 µM, first compound 0.316 µM)?
Answer: The viability, T/C was 101%.

Question: And the viability, T/C (second compound 0.00316 µM, first compound 1 µM)?
Answer: Its viability, T/C is 99.4%.

Question: And the viability, T/C (second compound 0.00316 µM, first compound 3.16 µM)?
Answer: The viability, T/C was 110%.

Question: And the viability, T/C (second compound 0.00316 µM, first compound 10 µM)?
Answer: The viability, T/C was 106%.

Question: What about the viability, T/C (second compound 0.01 µM, first compound 0.0316 µM) of the same compound?
Answer: The viability, T/C was 94.3%.

Question: And the viability, T/C (second compound 0.01 µM, first compound 0.1 µM)?
Answer: The viability, T/C was 99.2%.

Question: And the viability, T/C (second compound 0.01 µM, first compound 0.316 µM)?
Answer: Its viability, T/C is 93.8%.

Question: And the viability, T/C (second compound 0.01 µM, first compound 1 µM)?
Answer: Its viability, T/C is 105%.

Question: And the viability, T/C (second compound 0.01 µM, first compound 3.16 µM)?
Answer: The viability, T/C was 106%.

Question: And the viability, T/C (second compound 0.01 µM, first compound 10 µM)?
Answer: The viability, T/C was 98.1%.

Question: What about the viability, T/C (second compound 0.0316 µM, first compound 0.0316 µM) of the same compound?
Answer: Its viability, T/C is 94.4%.

Question: What about the viability, T/C (second compound 0.0316 µM, first compound 0.1 µM) of the same compound?
Answer: The viability, T/C was 91.1%.

Question: And the viability, T/C (second compound 0.0316 µM, first compound 0.316 µM)?
Answer: Its viability, T/C is 91.2%.

Question: What about the viability, T/C (second compound 0.0316 µM, first compound 1 µM) of the same compound?
Answer: Its viability, T/C is 98.7%.

Question: And the viability, T/C (second compound 0.0316 µM, first compound 3.16 µM)?
Answer: The viability, T/C was 91.4%.

Question: What about the viability, T/C (second compound 0.0316 µM, first compound 10 µM) of the same compound?
Answer: The viability, T/C was 108%.

Question: What about the viability, T/C (second compound 0.1 µM, first compound 0.0316 µM) of the same compound?
Answer: The viability, T/C was 91.6%.

Question: And the viability, T/C (second compound 0.1 µM, first compound 0.1 µM)?
Answer: Its viability, T/C is 85.5%.

Question: What about the viability, T/C (second compound 0.1 µM, first compound 0.316 µM) of the same compound?
Answer: Its viability, T/C is 84%.

Question: What about the viability, T/C (second compound 0.1 µM, first compound 1 µM) of the same compound?
Answer: Its viability, T/C is 97.8%.

Question: And the viability, T/C (second compound 0.1 µM, first compound 3.16 µM)?
Answer: The viability, T/C was 86%.

Question: What about the viability, T/C (second compound 0.1 µM, first compound 10 µM) of the same compound?
Answer: The viability, T/C was 87.1%.

Question: And the viability, T/C (second compound 0.316 µM, first compound 0.0316 µM)?
Answer: Its viability, T/C is 75.7%.

Question: And the viability, T/C (second compound 0.316 µM, first compound 0.1 µM)?
Answer: Its viability, T/C is 78.3%.

Question: What about the viability, T/C (second compound 0.316 µM, first compound 0.316 µM) of the same compound?
Answer: The viability, T/C was 64.9%.

Question: And the viability, T/C (second compound 0.316 µM, first compound 1 µM)?
Answer: The viability, T/C was 83.6%.

Question: And the viability, T/C (second compound 0.316 µM, first compound 3.16 µM)?
Answer: The viability, T/C was 77.5%.

Question: And the viability, T/C (second compound 0.316 µM, first compound 10 µM)?
Answer: The viability, T/C was 81%.

Question: What about the viability, T/C (second compound 1 µM, first compound 0.0316 µM) of the same compound?
Answer: The viability, T/C was 58.2%.

Question: And the viability, T/C (second compound 1 µM, first compound 0.1 µM)?
Answer: Its viability, T/C is 65.7%.

Question: And the viability, T/C (second compound 1 µM, first compound 0.316 µM)?
Answer: Its viability, T/C is 63.7%.

Question: And the viability, T/C (second compound 1 µM, first compound 1 µM)?
Answer: The viability, T/C was 63.9%.

Question: And the viability, T/C (second compound 1 µM, first compound 3.16 µM)?
Answer: Its viability, T/C is 58.1%.

Question: What about the viability, T/C (second compound 1 µM, first compound 10 µM) of the same compound?
Answer: The viability, T/C was 69.8%.
